Measurements published in ChEMBL document CHEMBL5209576, “Membrane potential based assay for SLC5A7 using HEK-293 SLC5A7 OE cells” (2022).

Biological target: T1, High affinity choline transporter 1 (Homo sapiens, UniProt Q9GZV3)
T1 sequence (Q9GZV3 whole entry): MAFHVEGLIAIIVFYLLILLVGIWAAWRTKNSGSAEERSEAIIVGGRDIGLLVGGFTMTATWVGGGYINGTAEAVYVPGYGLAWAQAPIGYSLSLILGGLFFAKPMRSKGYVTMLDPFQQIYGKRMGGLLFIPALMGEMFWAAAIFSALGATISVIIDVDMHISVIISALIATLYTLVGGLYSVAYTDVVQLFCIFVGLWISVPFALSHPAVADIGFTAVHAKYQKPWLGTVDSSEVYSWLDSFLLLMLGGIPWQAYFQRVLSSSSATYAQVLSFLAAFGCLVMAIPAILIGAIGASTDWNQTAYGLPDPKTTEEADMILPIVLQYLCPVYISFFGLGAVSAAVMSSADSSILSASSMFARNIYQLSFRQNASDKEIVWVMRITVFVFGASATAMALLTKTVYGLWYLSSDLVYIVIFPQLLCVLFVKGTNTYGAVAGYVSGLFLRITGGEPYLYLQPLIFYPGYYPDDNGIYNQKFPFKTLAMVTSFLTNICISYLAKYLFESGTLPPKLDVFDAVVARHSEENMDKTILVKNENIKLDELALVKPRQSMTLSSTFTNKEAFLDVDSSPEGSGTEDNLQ
Assay: Substrate uptake and inhibition of the High Affinity Choline Transporter 1 (CHT1, SLC5A7) as assessed by the fluorescent FLIPR membrane potential dye in HEK-293 JumpIN-SLC5A7 cells (PubChem AID: 1794811)
Type: functional, cell-based, HEK293

| SMILES | IC50 (hek293) | EC50 [µM] |
| --- | --- | --- |
| C[N+]1(C)CCOC(O)(c2ccc(-c3ccc(C4(O)C[N+](C)(C)CCO4)cc3)cc2)C1.[Br-].[Br-] (configuration not stated) | Inhibitor: Almost Complete Inhibition At A Concentration Of 10 Μm | – |
| C[N+](C)(C)CCO.[Cl-] [CHOLINE CHLORIDE] | – | 17 |
